As usually defined, the melting point is the temperature, or range, at which the solid turns liquid.

With `CC(=O)Cc1ccc(Oc2ccc(Cl)cc2)cc1`, the melting point was in the range of 50 to 52 °C. The molecule `Cc1cc(C#N)cc(C(=O)Nc2ccc(F)c(C)c2)n1` had a melting point of 177 °C. `CC1(C)CC(=O)C1(Cl)CC(Br)(Br)Br` (centres undefined) gave a melting point of 95 to 97 °C. As to `CCN(CC)c1nc(N)c(SC)c(Cl)n1`, the melting point is 68 °C. The molecule `CSc1sc(-c2nccs2)c2c1-c1oncc1CC2` gave a melting point of 165 to 168 °C. The value for `CN(CCOc1cc(-c2ccc(O)cc2)nn1C)CCc1ccc(Cl)cc1` was 90 to 91 °C; that for `CCN(CC)CC#CC(=O)c1ccc(C)cc1` was 115 to 117 °C; that for `CC(C)N1C(=O)c2cnc(-c3ccccc3)nc2N(C(=O)CCl)c2ccccc21` was 204 to 205 °C.

`COc1ccc(NC(=O)C2CC2)cn1` showed a melting point of 130 to 131 °C.

In turn, `CSc1ccc2ncc(N)c(-c3ccccc3)c2c1` gave a melting point of 135 to 137 °C. The value for `COc1ccc(NC(=O)c2c[nH]c3c2C(=O)CC(C)(C)C3)c(F)c1` was 203 to 205 °C. The value for `COc1cccc(C(F)(F)F)c1O` was 51 to 53 °C. The value for `O=C(O)[C@@H]1C[C@H]1/C=C\c1ccc(-c2nc3ccccc3o2)cc1` (relative stereo) was 171 to 172 °C; that for `CCC1c2cc(Cl)ccc2-c2ccc(Cl)cc21` was 80 to 83 °C. Regarding `O=C(O)C1Cc2cc3c(-c4ccccc4Cl)noc3c(Cl)c2O1` (centres undefined), the melting point lay within 224 to 225 °C. In the case of `CC1(C)Oc2ccc(C#N)cc2C(Oc2ccccn2)C1O` (centres undefined), the melting point was in the range of 102 to 103 °C. The value for `CCCN1NC(c2ccc(Cl)cc2)C2=C1C(=Cc1ccc(Cl)cc1)CSC2` (centres undefined) was 192 to 194 °C. In turn, `CC(C)(C)OC(=O)[C@H](O)CCc1ccc([N+](=O)[O-])cc1` showed a melting point of 41 to 42 °C. The value for `FC(F)(F)c1ccc(-c2cc(C(F)(F)F)n3cncc3n2)cc1` was 158 °C. `COc1cc(OC)c(-c2cccs2)cc1/C=C/C(=O)c1ccc(S(=O)(=O)Nc2ccc(Cl)cn2)cc1`: the melting point lay within 228 to 229 °C. The value for `Cc1cc([N+](=O)[O-])ccc1NCCNC(N)=O` was 186 °C; that for `COc1ccc(CCNCC(O)c2ccccc2C)cc1OC` (centres undefined) was 91 to 94 °C.

Consider `CC(C)(C)OC(=O)N1CC(O)C(SCc2ccccc2)C1` (centres undefined), for which the melting point was 97 to 98 °C. The value for `O=C1Nc2cc3c(cc2SC1CCCBr)OCO3` (centres undefined) was 168 to 169 °C. The value for `CC(C)Oc1cc(COc2cc(CCC(=O)O)n(-c3ccccc3)n2)cc(COc2ncc(C(F)(F)F)cc2Cl)c1` was 140 to 142 °C; that for `CCOC(=O)CCN1CCN(C2=Nc3ccccc3Sc3ccc(Cl)cc32)CC1` was 79 to 80 °C; that for `O=c1[nH]nc2c3c(cccc13)N=C(CN1CCCN(Cc3ccc(F)cc3)CC1)N2` was 163 to 165 °C.

In turn, `Cc1nc2c(cc1C(=O)NC(=N)N)CCCCC2Cl` (centres undefined) had a melting point of 153 to 156 °C.

`Nc1cc(C(F)(F)F)ccc1C=C1NC(=S)NC1=O` gave a melting point of 240 °C. The value for `COc1ccc(-c2ccc(=O)n(Cc3nc4cc(F)ccc4o3)c2)cc1` was 115 °C. The molecule `Cc1ccc(C2CCCN2S(=O)(=O)c2ccc(F)cc2)c(C)c1` (racemic) came in with a melting point of 134 °C. The value for `CCOC(=O)CCC(=O)c1ccc(Cl)cc1O` was 68 to 69 °C; that for `CCn1c(=O)c2[nH]c(/C=C/c3ccc(OC)c(OC)c3OC)nc2n(CC)c1=O` was 276 to 277 °C; that for `Cc1cc(C)c2nc(C3CC3)n(Cc3ccc(C4(C(=O)O)Cc5ccccc5C4)s3)c2n1` was 250 to 252 °C. The value for `COC(=O)c1ccc(CNC(C)=O)c([N+](=O)[O-])c1` was 100 to 102 °C. Consider `O=c1c(O)c(-c2ccccn2)oc2ccc(OCc3ccc(F)cc3)cc12`, for which the melting point was in the range of 204 to 205 °C.

As for `O=S1CCNCc2c(Cl)cccc21` (centres undefined), the melting point fell in the range of 125 to 126 °C. The value for `Fc1ccc(Nc2ncnc3cnc(NC4CCCNC4)nc23)cc1Cl` (centres undefined) was 194 to 199 °C.

With `CCCCCCCNC(=O)Nc1ccc(C(C)C)cc1C(=O)NCC1CCN(C(c2ccccc2)c2ccccc2)CC1`, the melting point fell in the range of 179 to 180 °C. The value for `O=C1c2cc(F)ccc2S(=O)(=O)c2cc(C3=NCCN3)ccc21` was 248 to 249 °C; that for `O=C(OCCS(=O)(=O)Cc1ccccc1)c1cc(Oc2ccc(C(F)(F)F)cc2Cl)ccc1[N+](=O)[O-]` was 105 °C. The value for `CCc1nc2c(C)cc(C)nc2n1Cc1ccc(C(c2ccc(C)cc2)C(C(=O)O)C(=O)O)cc1` (centres undefined) was 140 to 141 °C.

`CCOC(=O)C1(C)C(=O)Nc2cc3[nH]c(-c4cnccn4)nc3cc21` (centres undefined) showed a melting point of 288 to 290 °C. `CCCc1c(OCCCC(=O)O)ccc(C(C)=O)c1O` had a melting point of 130 to 133 °C. For the molecule `O=C1C(=Cc2ccc(Cl)c(Cl)c2)CSCC1=Cc1ccc(Cl)c(Cl)c1`, the melting point was in the range of 151 to 152 °C. With `O=C(O)COCCOCCN1C(=O)c2ccccc2C1=O`, the melting point lay in the range of 88 to 90 °C.

As for `CCN1CCC(C(C(N)=O)(c2ccccc2)c2ccccc2)C1` (centres undefined), the melting point is 141 to 142 °C. The molecule `CC(C)(C(=O)Cl)C(=S)Cl` yielded a melting point of 112 to 114 °C. As for `COc1ccc2c(c1)C13CCN(C)C(C2)C1C(C)C(C)C(=O)C3` (centres undefined), the melting point lay in the range of 101 to 102 °C. The value for `CCC(CC)(CC(=O)Nc1ccc2ccc(OCc3ccc4ccccc4n3)cc2c1)C(=O)O` was 190 to 191 °C. The value for `CC(=O)Nc1cccc(C(=O)NCc2ccc(-n3c(-c4cccnc4N)nc4cc(C)cnc43)cc2)c1` was 180 to 181 °C; that for `COc1ccc2c(c1)CN(Cc1c[nH]c3ccccc13)C2` was 178 to 180 °C; that for `CC(CCCc1ccccc1)c1cc(O)c2c3c(c(=O)oc2c1)CCC(=O)C3` (centres undefined) was 163 to 164 °C. `Cc1cscc1NC(=S)Nc1c(N)c(F)c(F)c(F)c1F`: the melting point lay in the range of 286 to 290 °C.

Consider `O=C1CCCN1c1cccc(-c2ccc(CC34CCCN3C(=O)N(c3cc(Cl)cc(Cl)c3)C4=O)cc2)c1` (centres undefined), for which the melting point worked out at 86.5 °C. The value for `OC(c1ccccc1)(c1ncc[nH]1)c1ccc(Cl)cc1Cl` (centres undefined) was 176 to 177 °C. For `OCCCCCCc1ccc(OCc2coc(/C=C/c3ccccc3)n2)cc1`, the melting point lay within 94 to 95 °C. The value for `CC1(C)OC(c2cccs2)CN1C(=O)C(Cl)Cl` (centres undefined) was 104 to 105 °C; that for `Fc1cc(-n2cc(CN=C=S)nn2)cc(F)c1N1CCOCC1` was 135 °C. The value for `CC(C)(C)OC(=O)Nc1ccc(-c2cccc(F)c2F)cc1NC(=O)CC(=O)c1cccc(C#N)c1` was 118 °C; that for `COc1c(OCc2ccccc2)c(OC)c2c(=O)cc(-c3ccc(OCc4ccccc4)c(OCc4ccccc4)c3)oc2c1OC` was 155 to 156 °C. On to `CCC(CC)(CCC#N)C(NC(=O)c1ccc(Cl)cc1)Nc1c(Nc2cccnc2)c(=O)c1=O` (centres undefined), for which the melting point was in the range of 242 to 243 °C. The value for `Cc1cc(Cc2ccc(Cl)cc2)n(O)c(=O)c1` was 142 °C; that for `CNC(=O)[C@@H]1C=CCN1C(=O)OC(C)(C)C` was 47 to 48 °C.

Consider `CO/C=C(/C(=O)OC)c1ccccc1C=O`, for which the melting point lay within 67 to 69 °C. `CCOC(=O)C1=C(COCc2cc(=O)[nH]c(N)n2)NC(C)=C(C(=O)OC)C1c1ccccc1Cl` (centres undefined) displayed a melting point of 185 to 187 °C. The value for `O=c1[nH]c2cc(Cl)ccc2c(O)c1-c1ccc(F)cc1` was 335 to 337 °C.

`CCc1c(-c2ccc(OCc3ccccc3)cc2)c2c(C(=O)O)c(C(=O)O)c3c(OCc4ccccc4)ccc1n32`: the melting point was 151 to 161 °C. The value for `O=C(O)COC1CCN(C(=O)CN2CCN(c3ccncc3)CC2)CC1` was 198 to 200 °C; that for `CCOC(=O)c1cc(-c2csc(-c3ccnc(N(C)C)c3)n2)c(=O)[nH]c1C(C)C` was above 230 °C.

In the case of `CS(=O)(=O)NCCCCn1c(-c2ccccc2)nc2c(N)nc3ccccc3c21`, the melting point was 234 to 235 °C. The value for `Cc1c(C)c2c(c(C)c1O)CC(C)C(C(=S)Nc1ccccc1)O2` (centres undefined) was 175 °C; that for `C#Cc1c(C#N)nn(-c2c(Cl)cc(C(F)(F)F)cc2Cl)c1Br` was 134 to 135 °C; that for `CCCn1cc2c(C3C(=O)Nc4ccc(Br)cc43)nc(NCc3ccncc3)nc2n1` (centres undefined) was above 300 °C. The value for `O=C(CC1CC1)NC[C@H]1CN(c2ccc3c(c2)CCCc2cn[nH]c2-3)C(=O)O1` was 212 to 215 °C; that for `CC(C)(SCCCCCCNS(=O)(=O)c1ccc(Cl)cc1)C(=O)O` was 93 to 94 °C. The value for `CN(C)C1(C(=O)c2cc3ccccc3n2C)CCC(c2ccccc2)(N(C)C)CC1` (centres undefined) was 109 to 111 °C; that for `NS(=O)(=O)c1ncccc1-c1ccccc1` was 172 °C. `CCc1cc(Cl)c2cccc(OC)c2n1` registered a melting point of 80 to 81 °C.

`NS(=O)(=O)c1cc2c(s1)S(=O)(=O)CC=C2` came in with a melting point of 210 to 212 °C. `CN(C)CCc1nc(C(N)=O)c2n1-c1ccc(Cl)cc1C(c1ccccc1Cl)=NC2` returned a melting point of 249 to 251 °C. The value for `CSc1nn(C(C)(C)C)c(=O)c(Cl)c1C1C=CC(C(C)(C)C)CC1` (centres undefined) was 82 to 84 °C. For the molecule `CCS(=O)(=O)Nc1cccc(C=C2c3ccccc3CCc3ccccc32)c1`, the melting point came to 180 °C. The value for `COc1cc(C=CC(=O)Cc2ccccc2)ccc1O` was 85 to 87 °C. On to `O=CC=C[C@@H]1O[C@H]1C#CC#CC#Cc1ccccc1` (relative stereo), for which the melting point lay within 91 to 92.5 °C.

`O=c1[nH]c(NCCCNc2ccccn2)ncc1Cc1ccc(Cl)cc1` gave a melting point of 168 to 171 °C. The value for `CC[C@@H]1N(c2ccc(C#N)c(C(F)(F)F)c2)C(=O)C[C@]1(C)O` was 137 to 139 °C; that for `COC(=O)C[C@@H]1C[C@@H](COc2ccc(-c3ccc(C#N)cc3)cc2)NC1=O` was 138 to 140 °C. For the molecule `NC(=O)c1nnc2n1-c1ccc(Cl)cc1C(c1ccccc1)=NC2`, the melting point fell in the range of 285 to 289 °C.

The values are drawn from a melting point compilation (Tetko et al.; mined from patent text by program, amines drawn as free bases though some values may be those of a salt).
